In patent publication US12522583B2, “Benzimidazole derivatives and aza-benzimidazole derivatives as Janus kinase 2 inhibitors and uses thereof” (Dana-Farber Cancer Institute, Inc., priority 2018, dated 2026):

Tests used:
Assay in all cases: KINOMEscan
Format in all cases: binding
Conditions in all cases: read-out: percent control
FYN = FYN (Homo sapiens (Human), UniProt P06241)
Description: (§1) Example 2. In Vitro Kinase Selectivity Profiling of the Compounds of the Present Disclosure

[1] = molecular target: RPS6KA5(Kin.Dom.1-terminal) (Homo sapiens (Human), UniProt O75582)
Description: as §1

FLT1 = FLT1 (Homo sapiens (Human), UniProt P17948)
Description: as §1

CDKL3 = CDKL3 (Homo sapiens (Human), UniProt Q8IVW4)
Description: as §1

LOK = LOK (Homo sapiens (Human), UniProt O94804)
Description: as §1

PCTK2 = PCTK2 (Homo sapiens (Human), UniProt Q00537)
Description: as §1

SGK3 = SGK3 (Homo sapiens (Human), UniProt Q96BR1)
Description: as §1

[2] = molecular target: JAK2(JH1domain-catalytic) (Homo sapiens (Human), UniProt O60674)
Description: as §1

KIT(D816V) = KIT(D816V) (Homo sapiens (Human), UniProt P10721, D816V)
KIT(D816V), sequence (P10721 26-976 D816V): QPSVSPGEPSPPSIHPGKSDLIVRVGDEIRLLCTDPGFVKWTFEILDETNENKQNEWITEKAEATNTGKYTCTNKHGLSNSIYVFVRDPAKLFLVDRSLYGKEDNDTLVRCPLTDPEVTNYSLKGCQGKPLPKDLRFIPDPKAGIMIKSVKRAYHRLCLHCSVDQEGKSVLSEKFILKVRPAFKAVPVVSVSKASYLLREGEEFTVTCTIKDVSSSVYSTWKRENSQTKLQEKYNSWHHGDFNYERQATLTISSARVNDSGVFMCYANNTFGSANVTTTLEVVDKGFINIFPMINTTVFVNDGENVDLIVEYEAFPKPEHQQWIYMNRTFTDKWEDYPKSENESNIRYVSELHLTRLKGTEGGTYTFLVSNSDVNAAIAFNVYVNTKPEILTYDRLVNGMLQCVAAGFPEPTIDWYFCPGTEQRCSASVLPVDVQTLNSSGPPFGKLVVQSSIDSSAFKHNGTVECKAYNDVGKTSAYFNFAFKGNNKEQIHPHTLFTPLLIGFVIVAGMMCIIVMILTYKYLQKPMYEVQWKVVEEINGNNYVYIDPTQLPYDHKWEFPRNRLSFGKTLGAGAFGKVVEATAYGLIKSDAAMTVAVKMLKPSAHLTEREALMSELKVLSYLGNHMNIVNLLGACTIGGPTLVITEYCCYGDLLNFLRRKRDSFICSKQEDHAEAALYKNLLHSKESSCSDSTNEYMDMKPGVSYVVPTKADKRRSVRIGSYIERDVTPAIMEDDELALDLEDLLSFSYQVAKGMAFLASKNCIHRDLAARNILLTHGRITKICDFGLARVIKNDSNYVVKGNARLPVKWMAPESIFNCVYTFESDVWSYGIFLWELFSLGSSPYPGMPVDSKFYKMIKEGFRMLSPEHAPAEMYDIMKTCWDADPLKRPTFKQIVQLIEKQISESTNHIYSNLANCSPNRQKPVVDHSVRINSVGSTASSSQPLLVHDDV
Description: as §1

PIK3C2B = PIK3C2B (Homo sapiens (Human), UniProt O00750)
PIK3C2B, sequence (O00750 whole entry): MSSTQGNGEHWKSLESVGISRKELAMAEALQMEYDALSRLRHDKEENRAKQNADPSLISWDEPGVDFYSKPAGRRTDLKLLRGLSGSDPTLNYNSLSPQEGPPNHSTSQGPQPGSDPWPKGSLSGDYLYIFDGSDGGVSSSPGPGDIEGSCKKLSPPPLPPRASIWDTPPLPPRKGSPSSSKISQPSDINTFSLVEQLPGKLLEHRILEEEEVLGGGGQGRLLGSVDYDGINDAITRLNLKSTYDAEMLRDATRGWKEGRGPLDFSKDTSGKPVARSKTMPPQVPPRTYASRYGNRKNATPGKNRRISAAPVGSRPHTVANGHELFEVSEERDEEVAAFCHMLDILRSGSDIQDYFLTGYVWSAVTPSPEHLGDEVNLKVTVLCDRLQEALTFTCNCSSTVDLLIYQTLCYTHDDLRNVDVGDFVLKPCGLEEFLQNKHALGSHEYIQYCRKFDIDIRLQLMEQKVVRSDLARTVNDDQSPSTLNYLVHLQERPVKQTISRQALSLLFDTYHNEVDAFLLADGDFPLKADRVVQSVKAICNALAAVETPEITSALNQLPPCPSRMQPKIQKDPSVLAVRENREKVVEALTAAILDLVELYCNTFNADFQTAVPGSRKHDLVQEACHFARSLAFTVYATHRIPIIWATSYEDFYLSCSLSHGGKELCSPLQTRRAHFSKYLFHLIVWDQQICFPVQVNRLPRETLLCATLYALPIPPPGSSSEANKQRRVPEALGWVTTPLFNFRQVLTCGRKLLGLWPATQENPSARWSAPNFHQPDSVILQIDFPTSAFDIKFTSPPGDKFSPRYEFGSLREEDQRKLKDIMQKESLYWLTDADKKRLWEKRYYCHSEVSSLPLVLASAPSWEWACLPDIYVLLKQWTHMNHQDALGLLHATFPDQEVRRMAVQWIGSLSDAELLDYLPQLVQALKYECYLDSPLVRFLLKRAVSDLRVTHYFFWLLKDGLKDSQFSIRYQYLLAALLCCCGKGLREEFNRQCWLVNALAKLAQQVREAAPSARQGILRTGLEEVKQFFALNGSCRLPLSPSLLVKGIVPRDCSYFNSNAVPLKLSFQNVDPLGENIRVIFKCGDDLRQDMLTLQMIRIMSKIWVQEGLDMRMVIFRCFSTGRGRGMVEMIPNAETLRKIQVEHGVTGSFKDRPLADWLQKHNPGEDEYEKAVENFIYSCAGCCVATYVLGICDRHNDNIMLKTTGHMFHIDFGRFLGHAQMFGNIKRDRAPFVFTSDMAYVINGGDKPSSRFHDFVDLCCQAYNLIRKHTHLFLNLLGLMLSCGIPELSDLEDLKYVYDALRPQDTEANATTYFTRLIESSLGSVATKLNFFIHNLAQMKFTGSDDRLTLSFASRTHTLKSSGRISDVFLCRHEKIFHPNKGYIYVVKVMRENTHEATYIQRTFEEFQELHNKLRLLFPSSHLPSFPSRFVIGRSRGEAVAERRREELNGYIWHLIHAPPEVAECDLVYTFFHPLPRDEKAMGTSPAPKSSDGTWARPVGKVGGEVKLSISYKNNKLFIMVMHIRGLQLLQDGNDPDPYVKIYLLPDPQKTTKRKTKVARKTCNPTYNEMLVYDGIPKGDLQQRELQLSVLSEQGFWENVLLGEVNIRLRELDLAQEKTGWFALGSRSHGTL
Description: as §1

SNRK = SNRK (Homo sapiens (Human), UniProt Q9NRH2)
Description: as §1

TXK = TXK (Homo sapiens (Human), UniProt P42681)
Description: as §1

RET(M918T) = RET(M918T) (Homo sapiens (Human), UniProt P07949, M918T)
Description: as §1

OSR1 = OSR1 (Homo sapiens (Human), UniProt O95747)
Description: as §1

[3] = molecular target: JAK1(JH2domain-pseudokinase) (Homo sapiens (Human), UniProt P23458)
Description: as §1

TNK1 = TNK1 (Homo sapiens (Human), UniProt Q13470)
Description: as §1

EGFR(S752-I759del) = EGFR(S752-I759del) (Homo sapiens (Human), UniProt P00533, DEL752-759)
Description: as §1

PKAC-beta = PKAC-beta (Homo sapiens (Human), UniProt P22694)
Description: as §1

CAMKK1 = CAMKK1 (Homo sapiens (Human), UniProt Q8N5S9)
Description: as §1

MKNK1 = MKNK1 (Homo sapiens (Human), UniProt Q9BUB5)
Description: as §1

PRKG1 = PRKG1 (Homo sapiens (Human), UniProt Q13976)
Description: as §1

EPHB1 = EPHB1 (Homo sapiens (Human), UniProt P54762)
Description: as §1

SNARK = SNARK (Homo sapiens (Human), UniProt Q9H093)
Description: as §1

DYRK1A = DYRK1A (Homo sapiens (Human), UniProt Q13627)
Description: as §1

MLCK = MLCK (Homo sapiens (Human), UniProt Q32MK0)
MLCK, sequence (Q32MK0 whole entry): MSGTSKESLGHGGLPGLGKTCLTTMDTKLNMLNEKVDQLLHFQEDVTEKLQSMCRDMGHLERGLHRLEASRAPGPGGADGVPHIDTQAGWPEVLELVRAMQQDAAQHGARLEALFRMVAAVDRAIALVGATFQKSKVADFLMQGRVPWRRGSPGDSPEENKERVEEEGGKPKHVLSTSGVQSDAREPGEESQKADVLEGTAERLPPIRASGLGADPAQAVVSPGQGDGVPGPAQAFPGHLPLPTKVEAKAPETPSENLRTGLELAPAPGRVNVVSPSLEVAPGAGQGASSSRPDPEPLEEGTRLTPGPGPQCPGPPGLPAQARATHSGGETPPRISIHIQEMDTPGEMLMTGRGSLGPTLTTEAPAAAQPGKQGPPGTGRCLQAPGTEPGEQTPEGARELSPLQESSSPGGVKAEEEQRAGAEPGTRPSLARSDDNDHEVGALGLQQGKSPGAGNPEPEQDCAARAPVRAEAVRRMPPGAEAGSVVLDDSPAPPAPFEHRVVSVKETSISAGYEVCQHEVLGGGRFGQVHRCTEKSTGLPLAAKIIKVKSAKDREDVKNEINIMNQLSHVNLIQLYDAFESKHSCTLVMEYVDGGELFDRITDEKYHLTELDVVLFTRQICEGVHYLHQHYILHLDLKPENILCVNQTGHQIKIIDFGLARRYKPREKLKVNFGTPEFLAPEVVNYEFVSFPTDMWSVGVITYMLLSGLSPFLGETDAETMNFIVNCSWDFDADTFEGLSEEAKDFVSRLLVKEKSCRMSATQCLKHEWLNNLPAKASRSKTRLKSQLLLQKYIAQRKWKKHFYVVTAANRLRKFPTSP
Description: as §1

NEK6 = NEK6 (Homo sapiens (Human), UniProt Q9HC98)
Description: as §1

MAP3K15 = MAP3K15 (Homo sapiens (Human), UniProt Q6ZN16)
Description: as §1

KIT = KIT (Homo sapiens (Human), UniProt P10721)
KIT, sequence (P10721 26-976): as the sequence (P10721 26-976 D816V) above, with V791D counted along it
Description: as §1

ERK3 = ERK3 (Homo sapiens (Human), UniProt Q16659)
Description: as §1

IKK-alpha = IKK-alpha (Homo sapiens (Human), UniProt O15111)
Description: as §1

ROS1 = ROS1 (Homo sapiens (Human), UniProt P08922)
Description: as §1

PIK3CB = PIK3CB (Homo sapiens (Human), UniProt P42338)
Description: as §1

[4] = molecular target: RSK4(Kin.Dom.2-C-terminal) (Homo sapiens (Human), UniProt Q9UK32)
Description: as §1

ACVRL1 = ACVRL1 (Homo sapiens (Human), UniProt P37023)
Description: as §1

JNK3 = JNK3 (Homo sapiens (Human), UniProt P53779)
Description: as §1

ERBB4 = ERBB4 (Homo sapiens (Human), UniProt Q15303)
Description: as §1

CLK3 = CLK3 (Homo sapiens (Human), UniProt P49761)
Description: as §1

MAST1 = MAST1 (Homo sapiens (Human), UniProt Q9Y2H9)
MAST1, sequence (Q9Y2H9 whole entry): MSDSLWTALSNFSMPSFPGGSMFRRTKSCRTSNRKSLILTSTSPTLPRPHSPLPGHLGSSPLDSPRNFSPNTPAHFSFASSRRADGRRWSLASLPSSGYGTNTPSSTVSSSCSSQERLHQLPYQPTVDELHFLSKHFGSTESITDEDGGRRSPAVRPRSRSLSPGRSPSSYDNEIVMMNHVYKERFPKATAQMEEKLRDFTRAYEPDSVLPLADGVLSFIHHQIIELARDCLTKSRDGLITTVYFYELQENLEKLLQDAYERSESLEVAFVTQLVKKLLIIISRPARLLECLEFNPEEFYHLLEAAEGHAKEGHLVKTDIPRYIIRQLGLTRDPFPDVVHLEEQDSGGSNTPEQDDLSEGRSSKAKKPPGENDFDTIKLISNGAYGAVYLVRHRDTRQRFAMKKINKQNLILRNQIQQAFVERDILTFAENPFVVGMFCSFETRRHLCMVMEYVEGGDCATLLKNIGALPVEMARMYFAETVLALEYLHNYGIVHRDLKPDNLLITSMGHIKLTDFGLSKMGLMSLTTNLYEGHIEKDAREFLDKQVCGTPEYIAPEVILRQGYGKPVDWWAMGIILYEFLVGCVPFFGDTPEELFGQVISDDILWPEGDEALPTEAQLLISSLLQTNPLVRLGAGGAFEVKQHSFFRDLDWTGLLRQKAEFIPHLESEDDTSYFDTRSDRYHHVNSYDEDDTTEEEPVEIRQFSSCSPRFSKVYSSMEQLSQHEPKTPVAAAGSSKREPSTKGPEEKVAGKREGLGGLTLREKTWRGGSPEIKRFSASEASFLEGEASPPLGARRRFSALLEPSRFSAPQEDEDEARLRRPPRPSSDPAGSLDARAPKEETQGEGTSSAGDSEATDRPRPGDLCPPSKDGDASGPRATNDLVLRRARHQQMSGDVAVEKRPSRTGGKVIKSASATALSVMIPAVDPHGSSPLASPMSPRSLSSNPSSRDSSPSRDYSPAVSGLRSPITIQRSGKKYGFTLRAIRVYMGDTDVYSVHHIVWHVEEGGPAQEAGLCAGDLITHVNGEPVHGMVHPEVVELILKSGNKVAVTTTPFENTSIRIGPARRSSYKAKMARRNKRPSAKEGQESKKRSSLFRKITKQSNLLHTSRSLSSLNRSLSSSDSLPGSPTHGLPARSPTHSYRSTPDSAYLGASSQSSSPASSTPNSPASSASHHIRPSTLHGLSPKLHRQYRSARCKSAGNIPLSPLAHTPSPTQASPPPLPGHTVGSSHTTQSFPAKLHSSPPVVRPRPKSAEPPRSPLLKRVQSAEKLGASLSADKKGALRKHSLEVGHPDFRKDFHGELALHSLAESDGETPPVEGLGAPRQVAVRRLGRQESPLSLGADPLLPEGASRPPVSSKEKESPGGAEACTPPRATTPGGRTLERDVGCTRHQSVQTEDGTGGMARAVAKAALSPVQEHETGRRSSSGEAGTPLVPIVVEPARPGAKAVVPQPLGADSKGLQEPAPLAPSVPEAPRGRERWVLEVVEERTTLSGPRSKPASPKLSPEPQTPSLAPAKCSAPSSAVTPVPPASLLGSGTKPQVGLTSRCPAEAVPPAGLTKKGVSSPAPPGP
Description: as §1

MAP4K5 = MAP4K5 (Homo sapiens (Human), UniProt Q9Y4K4)
Description: as §1

MST2 = MST2 (Homo sapiens (Human), UniProt Q13188)
Description: as §1

Structure (SMILES) | remaining binding at 1 µM (FYN) [%] | remaining binding at 1 µM [1] [%] | remaining binding at 1 µM (FLT1) [%] | remaining binding at 1 µM (CDKL3) [%] | remaining binding at 1 µM (LOK) [%] | remaining binding at 1 µM (PCTK2) [%] | remaining binding at 1 µM (SGK3) [%] | remaining binding at 1 µM [2] [%] | remaining binding at 1 µM (KIT(D816V)) [%] | remaining binding at 1 µM (PIK3C2B) [%] | remaining binding at 1 µM (SNRK) [%] | remaining binding at 1 µM (TXK) [%] | remaining binding at 1 µM (RET(M918T)) [%] | remaining binding at 1 µM (OSR1) [%] | remaining binding at 1 µM [3] [%] | remaining binding at 1 µM (TNK1) [%] | remaining binding at 1 µM (EGFR(S752-I759del)) [%] | remaining binding at 1 µM (PKAC-beta) [%] | remaining binding at 1 µM (CAMKK1) [%] | remaining binding at 1 µM (MKNK1) [%] | other results
CCN1CCN(Cc2ccc(Nc3nc4ccc(Oc5ccnc(NC(C)=O)c5)cc4n3C)cc2C(F)(F)F)CC1 [Compound I-2] | 80 | 96 | 6.3 | 7.6 | 21 | 91 | 93 | 16 | 56 | 85 | 100 | 100 | 0.8 | 100 | 97 | 76 | 100 | 94 | 100 | 95 | remaining binding at 1 µM (PRKG1): 100%; remaining binding at 1 µM (EPHB1): 94%; remaining binding at 1 µM (SNARK): 100%; remaining binding at 1 µM (DYRK1A): 92%; remaining binding at 1 µM (MLCK): 100%; remaining binding at 1 µM (NEK6): 93%; remaining binding at 1 µM (MAP3K15): 88%; remaining binding at 1 µM (KIT): 0%; remaining binding at 1 µM (ERK3): 94%; remaining binding at 1 µM (IKK-alpha): 100%; remaining binding at 1 µM (ROS1): 73%; remaining binding at 1 µM (PIK3CB): 100%; remaining binding at 1 µM [4]: 86%; remaining binding at 1 µM (ACVRL1): 85%; remaining binding at 1 µM (JNK3): 100%; remaining binding at 1 µM (ERBB4): 84%; remaining binding at 1 µM (CLK3): 94%; remaining binding at 1 µM (MAST1): 74%; remaining binding at 1 µM (MAP4K5): 89%; remaining binding at 1 µM (MST2): 81%
CCN1CCN(Cc2ccc(Nc3nc4ccc(Oc5ccnc(NC(C)=O)c5)c(C)c4n3C)cc2C(F)(F)F)CC1 [Compound I-6, N-(4-(2-(4-((4-ethylpiperazin-1-yl)methyl)-3-(trifluoromethyl)phenylamino)-1,7-dimethyl-1H-benzo[d]imidazol-6-yloxy)pyridin-2-yl)acetamide] | 49 | 74 | 4.2 | 0.4 | 0.45 | 35 | 100 | 29 | 50 | 97 | 81 | 84 | 0.15 | 87 | 82 | 82 | 94 | 86 | 100 | 80 | remaining binding at 1 µM (PRKG1): 98%; remaining binding at 1 µM (EPHB1): 95%; remaining binding at 1 µM (SNARK): 100%; remaining binding at 1 µM (DYRK1A): 100%; remaining binding at 1 µM (MLCK): 97%; remaining binding at 1 µM (NEK6): 99%; remaining binding at 1 µM (MAP3K15): 60%; remaining binding at 1 µM (KIT): 0.55%; remaining binding at 1 µM (ERK3): 94%; remaining binding at 1 µM (IKK-alpha): 75%; remaining binding at 1 µM (ROS1): 43%; remaining binding at 1 µM (PIK3CB): 96%; remaining binding at 1 µM [4]: 97%; remaining binding at 1 µM (ACVRL1): 93%; remaining binding at 1 µM (JNK3): 77%; remaining binding at 1 µM (ERBB4): 94%; remaining binding at 1 µM (CLK3): 95%; remaining binding at 1 µM (MAST1): 100%; remaining binding at 1 µM (MAP4K5): 88%; remaining binding at 1 µM (MST2): 58%
